Data reported in ChEMBL document CHEMBL3885881, “DrugMatrix”.

Organism: Rattus norvegicus
Format: toxicity, organism-based, Sprague-Dawley
Conditions: in vivo, po, route oral GAVAGE, vehicle 100 % SALINE; for ABSOLUTE EOSINOPHIL / ABSOLUTE LYMPHOCYTE / ABSOLUTE MONOCYTE / ABSOLUTE SEGMENTED NEUTROPHIL / BASOPHIL / EOSINOPHIL / ERYTHROCYTE COUNT / HEMATOCRIT / HEMOGLOBIN / LEUKOCYTE COUNT / LYMPHOCYTE / MEAN CORPUSCULAR HEMOGLOBIN / MEAN CORPUSCULAR HEMOGLOBIN CONCENTRATION / MEAN CORPUSCULAR VOLUME / MONOCYTE / NEUTROPHIL / NUCLEATED RED BLOOD CELLS / PLATELET COUNT: tissue Blood; for ALANINE AMINOTRANSFERASE / ALBUMIN / ALKALINE PHOSPHATASE / ASPARTATE AMINOTRANSFERASE / BLOOD UREA NITROGEN / CARBON DIOXIDE / CHLORIDE / CHOLESTEROL / CREATINE PHOSPHOKINASE / CREATININE / GLUCOSE / LACTATE DEHYDROGENASE / LIPASE / PHOSPHORUS / POTASSIUM / SODIUM / TOTAL BILIRUBIN / TOTAL PROTEIN / URIC ACID: tissue Plasma
[1] = 0 mg/kg, 6 h, dose level Control, time 0.25 day
[2] = 0 mg/kg, 24 h, dose level Control, time 1 day
[3] = 3000 mg/kg, 6 h, dose level Low, time 0.25 day

Description: DrugMatrix - Regimen: Single

CCO [ALCOHOL]
ABSOLUTE EOSINOPHIL [1]: 24 CELLS/uL | ABSOLUTE LYMPHOCYTE [1]: 11958.17 CELLS/uL | ABSOLUTE MONOCYTE [1]: 398.83 CELLS/uL | ABSOLUTE SEGMENTED NEUTROPHIL [1]: 1252.33 CELLS/uL | BASOPHIL [1]: 0% | EOSINOPHIL [1]: 0.17% | ERYTHROCYTE COUNT [1]: 5.37 x10E6/uL | HEMATOCRIT [1]: 35.6% | HEMOGLOBIN [1]: 13.05 G/DL | LEUKOCYTE COUNT [1]: 13.63 x10E3/uL | LYMPHOCYTE [1]: 87.67% | MEAN CORPUSCULAR HEMOGLOBIN [1]: 24.28 pg | MEAN CORPUSCULAR HEMOGLOBIN CONCENTRATION [1]: 36.67 G/DL | MEAN CORPUSCULAR VOLUME [1]: 66.28 fL | MONOCYTE [1]: 2.83% | NEUTROPHIL [1]: 9.33% | NUCLEATED RED BLOOD CELLS [1]: 0 /100WBC | PLATELET COUNT [1]: 947.83 x10E3/uL | ALANINE AMINOTRANSFERASE [1]: 51 u/L | ALBUMIN [1]: 4.02 G/DL | ALKALINE PHOSPHATASE [1]: 312.33 u/L | ASPARTATE AMINOTRANSFERASE [1]: 98.17 u/L | BLOOD UREA NITROGEN [1]: 9.5 mg/dL | CARBON DIOXIDE [1]: 18.83 mmol/L | CHLORIDE [1]: 103.5 MEQ/L | CHOLESTEROL [1]: 69.5 mg/dL | CREATINE PHOSPHOKINASE [1]: 580.17 u/L | CREATININE [1]: 0.53 mg/dL | GLUCOSE [1]: 175.67 mg/dL | LACTATE DEHYDROGENASE [1]: 295.5 u/L | LIPASE [1]: 8.17 u/L | PHOSPHORUS [1]: 14.12 mg/dL | POTASSIUM [1]: 5.77 MEQ/L | SODIUM [1]: 144.13 MEQ/L | TOTAL BILIRUBIN [1]: 0.12 mg/dL | TOTAL PROTEIN [1]: 4.87 G/DL | URIC ACID [1]: 2.25 mg/dL | ABSOLUTE EOSINOPHIL [2]: 0 CELLS/uL | ABSOLUTE LYMPHOCYTE [2]: 12232.83 CELLS/uL | ABSOLUTE MONOCYTE [2]: 20.33 CELLS/uL | ABSOLUTE SEGMENTED NEUTROPHIL [2]: 780.17 CELLS/uL | BASOPHIL [2]: 0% | EOSINOPHIL [2]: 0% | ERYTHROCYTE COUNT [2]: 5.18 x10E6/uL | HEMATOCRIT [2]: 33.48% | HEMOGLOBIN [2]: 13.22 G/DL | LEUKOCYTE COUNT [2]: 13.03 x10E3/uL | LYMPHOCYTE [2]: 93.33% | MEAN CORPUSCULAR HEMOGLOBIN [2]: 25.57 pg | MEAN CORPUSCULAR HEMOGLOBIN CONCENTRATION [2]: 39.52 G/DL | MEAN CORPUSCULAR VOLUME [2]: 64.65 fL | MONOCYTE [2]: 0.17% | NEUTROPHIL [2]: 6.5% | NUCLEATED RED BLOOD CELLS [2]: 0 /100WBC | PLATELET COUNT [2]: 931.5 x10E3/uL | ALANINE AMINOTRANSFERASE [2]: 60.83 u/L | ALBUMIN [2]: 4.18 G/DL | ALKALINE PHOSPHATASE [2]: 283.33 u/L | ASPARTATE AMINOTRANSFERASE [2]: 80.5 u/L | BLOOD UREA NITROGEN [2]: 11.83 mg/dL | CARBON DIOXIDE [2]: 35.33 mmol/L | CHLORIDE [2]: 98.5 MEQ/L | CHOLESTEROL [2]: 80 mg/dL | CREATINE PHOSPHOKINASE [2]: 181.83 u/L | CREATININE [2]: 0.2 mg/dL | GLUCOSE [2]: 142.67 mg/dL | LACTATE DEHYDROGENASE [2]: 65.5 u/L | LIPASE [2]: 9.83 u/L | PHOSPHORUS [2]: 9.82 mg/dL | POTASSIUM [2]: 5.69 MEQ/L | SODIUM [2]: 143.35 MEQ/L | TOTAL BILIRUBIN [2]: 0.15 mg/dL | TOTAL PROTEIN [2]: 6.2 G/DL | URIC ACID [2]: 0.42 mg/dL | ABSOLUTE EOSINOPHIL [3]: 17.33 CELLS/uL | ABSOLUTE LYMPHOCYTE [3]: 12297.17 CELLS/uL | ABSOLUTE MONOCYTE [3]: 395.33 CELLS/uL | ABSOLUTE SEGMENTED NEUTROPHIL [3]: 1356.83 CELLS/uL | BASOPHIL [3]: 0% | EOSINOPHIL [3]: 0.17% | ERYTHROCYTE COUNT [3]: 5.49 x10E6/uL | HEMATOCRIT [3]: 36.33% | HEMOGLOBIN [3]: 13.27 G/DL | LEUKOCYTE COUNT [3]: 14.07 x10E3/uL | LYMPHOCYTE [3]: 87% | MEAN CORPUSCULAR HEMOGLOBIN [3]: 24.23 pg | MEAN CORPUSCULAR HEMOGLOBIN CONCENTRATION [3]: 36.55 G/DL | MEAN CORPUSCULAR VOLUME [3]: 66.38 fL | MONOCYTE [3]: 2.67% | NEUTROPHIL [3]: 10.17% | NUCLEATED RED BLOOD CELLS [3]: 0 /100WBC | PLATELET COUNT [3]: 1109.83 x10E3/uL | ALANINE AMINOTRANSFERASE [3]: 45.5 u/L | ALBUMIN [3]: 4.27 G/DL | ALKALINE PHOSPHATASE [3]: 279.17 u/L | ASPARTATE AMINOTRANSFERASE [3]: 96.17 u/L | BLOOD UREA NITROGEN [3]: 11 mg/dL | CARBON DIOXIDE [3]: 19.5 mmol/L | CHLORIDE [3]: 105.33 MEQ/L | CHOLESTEROL [3]: 63.33 mg/dL | CREATINE PHOSPHOKINASE [3]: 339.67 u/L | CREATININE [3]: 0.17 mg/dL | GLUCOSE [3]: 173 mg/dL | LACTATE DEHYDROGENASE [3]: 354.67 u/L | LIPASE [3]: 10 u/L | PHOSPHORUS [3]: 15.83 mg/dL | POTASSIUM [3]: 6.29 MEQ/L | SODIUM [3]: 146.3 MEQ/L | TOTAL BILIRUBIN [3]: 0.0667 mg/dL | TOTAL PROTEIN [3]: 5.62 G/DL | URIC ACID [3]: 2.12 mg/dL
